System: palmitoylation of GAP43:GFP in MDCK cells
Assay: Localization of the palmitoylation reporter GAP43:GFP at the plasma membrane, by microscopy and HTM algorithm
Format: cell-based
Conditions: for effect on palmitoylation / PM localization of GAP43:GFP: MDCK cells transiently transfected with GAP43:GFP, incubation in 100 μM 2BP
Text: FIGS. 2A-2D provide characterization of the reporter of S-palmitoylation. […] Cells in FIGS. 2B, 2C and 2D are representative of many having the same morphology.
FIGS. 5A-5D illustrate the simple case of quantifying whether or not GAP43:GFP is on the PM or in the cytoplasm using the HTM algorithm. In this analysis, MDCK cells (the same images as presented in FIGS. 2A-2D), transiently transfected with GFP alone are presented in FIG. 5A; transiently transfected with GAP43:GFP are presented in FIG. 5B; and transiently transfected with GAP43:GFP in the presence of 100 μM 2BP are presented in FIG. 5C.
FIG. 6 presents a quantitative analysis of the time course of translocation of GAP43:GFP from the plasma membrane in response to 100 μM 2BP: residence half life of palmitoylation. MDCK cells stably expressing GAP43:GFP were exposed to 100 μM 2BP for 6 hours. During this time, the same field of view of cells was imaged repeatedly in two channels Hoechst/nucleus (see FIG. 6A) and GFP/PM (see FIG. 6B) on the EIDAQ100 (the three images: 6A, 6B and 6C are at time 0). The PM mask (green lines) defined by the program is shown in FIG. 6C; the nucleus is delimited by red lines. By determining the average fluorescence intensity of the area defined by the PM mask (see FIG. 6D), PM labeling was reduced by 80% from the maximum (or starting) density during the 6 hour period.
This algorithm is able to make a simple binary decision of whether GAP43:GFP is on the PM or in the cytoplasm (see FIG. 5) as well as fine incremental determinations (see FIG. 6) of the quantity of fluorescence on the PM, thereby extending the capability beyond what is necessary to score the primary screen for trapped genes. Two important questions are answered here. Data in FIGS. 5A-5D illustrate that the algorithm is sufficient to ensure success in a screen to find genes critical in the pathway for palmitoylation of the reporter in an ICR-2A reporter cell line.

Q: Which “reduction of PM labeling (average fluorescence intensity of the area defined by the PM mask) from the maximum (starting) density” value (MDCK cells stably expressing GAP43:GFP, 100 μM 2BP, 6 hour period, EIDAQ100 imaging) does the source give for `CCCCCCCCCCCCCCC(Br)C(=O)O` (stereo not drawn) [2BP, 2-bromopalmitate] here?
A: The value was 80%.

Q: And the “effect on palmitoylation / PM localization of GAP43:GFP” value?
A: Its value is “localization to the PM has been inhibited”.

Q: What about the “effect on palmitoylation / PM localization of GAP43:GFP” value (listed as 2-bromopalmitate) of the same compound?
A: The value was “palmitoylation is inhibited”.
